Test results published in ChEMBL document CHEMBL1157539, “Thousands of chemical starting points for antimalarial lead identification” (Nature, 2010).

Tested on: Plasmodium falciparum
Test: GSK_TCMDC: Inhibition of Plasmodium falciparum 3D7 in whole erythrocytes, using parasite LDH activity as an index of growth.
Assay type: functional, organism-based
Conditions: Plasmodium falciparum, 3D7

## CNC(=O)c1cnc(Nc2ccc(N3CCN(C)CC3)cc2)nc1Nc1ccccc1OC
  XC50: 0.928 µM

## O=C(/C=C/c1ccc(Cl)c(Cl)c1)NCCCCCN1CCC(NC(=O)Nc2ccc(F)cc2F)CC1
  XC50: 0.739 µM

## COc1ccc(CN(C)CCCc2ccc(NC(=O)Cc3ccc4nc(-c5ccccc5)ccc4c3)cc2)cc1OC
  XC50: 0.534 µM

## COc1ccc2ncc(C#N)c(CCN3C4CCC3CC(NCc3ccc5c(n3)NC(=O)CS5)C4)c2c1 (centres undefined)
  XC50: 0.81 µM

## Cc1cccc(NC(=O)NCc2ccccc2)n1
  XC50: 0.944 µM

## N#Cc1ccc(CN2CCC(NC(=O)c3ccc(-c4nnc(-c5cccc6ccccc56)o4)cc3)CC2)cc1
  XC50: 0.684 µM

## N=C(N)Nc1nccc(NCc2ccccc2)n1
  XC50: 0.895 µM

## O=C(Nc1ccc(-c2cccc(-c3nc4ccccc4[nH]3)c2)cc1)Nc1ccc(Cl)c(Cl)c1
  XC50: 0.459 µM

## O[C@H]1[C@H](OCc2ccc(-c3ccccc3)cc2)CC[C@@H]1N1CCCCC1
  XC50: 1.06 µM

## NC(=O)c1ccccc1Nc1nc(Nc2cccc(N3CCN(CCO)CC3)c2)ncc1Cl
  XC50: 0.0396 µM

## COc1cc2nc(N3CCC(CNC(=O)c4ccc(-c5ccc(-c6noc(C)n6)cc5C)cc4)CC3)nc(N)c2cc1OC
  XC50: 0.215 µM

## CC(=O)Nc1nc(C(=O)Nc2ccc(-c3cccc(-c4nc5cc(C(F)(F)F)ccc5[nH]4)c3)cc2)cs1
  XC50: 0.184 µM

## COc1ccc2ncc(F)c(CCN3CC(O)C(CNCc4ccc(F)cc4)C3)c2n1 (centres undefined)
  XC50: 0.821 µM

## NC1CCN(Cc2ccc(-c3ccc(-c4nc5cc(F)ccc5[nH]4)s3)cc2)C1 (centres undefined)
  XC50: 0.646 µM

## Cc1cc(NCCCCCCN)nc(Nc2ccc(Cl)cc2)n1
  XC50: 0.448 µM

## COc1ccc2[nH]c(C)cc(=NN=Cc3cc(OC)c(OC)cc3OC)c2c1
  XC50: 0.739 µM

## Nc1cccc(CNCc2cccc(-c3ccc(-c4nc5ccccc5[nH]4)cc3)c2)c1
  XC50: 0.415 µM

## CC(C)Cc1nc2nc(N)nc(N)c2cc1C(C)C
  XC50: 0.226 µM

## Cc1cc(N[C@@H](Cc2ccccc2)C(=O)NCc2cccc(F)c2)nc(NCCc2cccnc2)n1
  XC50: 1.34 µM

## NS(=O)(=O)NCCCN1CCN(c2ccccc2)CC1
  XC50: 0.977 µM

## O=C(Nc1ccc2c(c1)CCC2)c1cnc(N2CCN(c3ccncc3)CC2)c(Cl)c1
  XC50: 1.11 µM

## COc1ccc(C(=O)NC(c2ccc(Cl)cc2Cl)c2cc(Cl)c3cccnc3c2O)cc1 (centres undefined)
  XC50: 0.499 µM

## O=C(Nc1ccc(Cl)cc1)Nc1ccc(Cn2ncc(N3CCCNCC3)c(Cl)c2=O)cc1
  XC50: 0.783 µM

## c1ccc2c(c1)CN(Cc1cc3ccccc3[nH]1)CC1(CCN(Cc3c[nH]c4cnccc34)CC1)O2
  XC50: 0.306 µM

## COc1ccc2nccc([C@@H](O)CN3CCC(NCc4cc5cccnc5[nH]4)CC3)c2n1
  XC50: 0.956 µM

## CN1CCCc2ccc(NC(=O)Nc3ccc(Cl)c(Cl)c3)cc2C1
  XC50: 0.603 µM

## c1ccc(CCNCc2ccc(-c3cccc(CNc4ccc5ncccc5c4)c3)cc2)cc1
  XC50: 0.926 µM

## CNC(=O)c1cnc(Nc2ccc(N3CCN(C)CC3)cc2)nc1Nc1cccc(OC(C)C)c1
  XC50: 0.147 µM

## COc1ccc(CNC2Cc3ccccc3C2)cc1-c1ccc(S(=O)(=O)NCCN2CCCC2)cc1
  XC50: 0.582 µM

## CC(NCCC1CCC(NC(=O)N[C@H](C)C(O)(c2ccccc2)c2ccccc2)CC1)c1cccc2ccccc12 (some centres undefined)
  XC50: 1.1 µM

## CS(=O)(=O)Nc1cccc(-c2cnc3[nH]cc(-c4ccc(CCC(=O)O)cc4)c3c2)c1
  XC50: 1.06 µM

## COc1cc(CN2CCC(N3CCc4cc(NC(=O)c5cc(C)on5)ccc43)C2)ccc1F (centres undefined)
  XC50: 0.607 µM

## O=C(Nc1cccc(C(F)(F)F)c1)c1cccc(S(=O)(=O)NCC2CCCN2CC2CCCCC2)c1 (centres undefined)
  XC50: 1.11 µM

## CCOC(=O)c1ccc(OCc2ccc(-c3ccccc3)cc2)cc1
  XC50: 0.813 µM

## CCC(CSC1CCCCC1)N(C)CCN(C)C(CC)CSC1CCCCC1 (centres undefined)
  XC50: 0.314 µM

## O=C(/C=C/c1ccc(Cl)c(Cl)c1)NCCCCCCN1CCCN(C(=O)Nc2ccc(F)c(Cl)c2)CC1
  XC50: 0.738 µM

## CC(C)COc1ccc(Cl)cc1Cc1ccc(-c2nc3ccc(C(F)(F)F)cc3[nH]2)o1
  XC50: 0.847 µM

## O=C(Nc1cccc(-c2nn3ccccc3c2-c2ccnc(Nc3cccc(N4CCCC4=O)c3)n2)c1)c1cc(F)ccc1F
  XC50: 0.212 µM

## N#Cc1ccc2c(c1)CN(CCCCNC(=O)c1ccc(-c3ccccc3)cc1)CC2
  XC50: 0.894 µM
